# Results taken from patent US20070031482A1, “PDT treatment method for cellulites and cosmetic use” (CeramOptec Industries, Ind., priority 2005, published 2007).
# Legend:
# [1] = cited from earlier work
# [2] = without light activation; cited from earlier work
# cellulites = experiment: PDT treatment of cellulites with Temoporfin solution by Mesotherapy and diode laser (Example 1); assay type: in vivo, patient; conditions: 1 session per area, followed by appropriate physiotherapy / complementary session (ultrasound, lymph-drainage, electro-stimulation); evaluation after 30 days
# Description: A patient having cellulites is treated with Temoporfin in several sessions. The variables in this treatment program are as follows: • 1.—A determination of the grade of cellulites in the patient. • 2.—A determination of the dose and concentration of Temoporfin and to confirm that it produces an improvement on the cellulites, and to further insure that it is possible to apply it directly by Mesotherapy without the need of systemic introduction. • 3.—A determination as to the potency of Temoporfin based on the time of application to the time of laser application; and • 4.—A determination as to accompanying treatments. In this EXAMPLE, the patient is administered the Temoporfin solution as follows: In all sequences, the treatment consists 1 session only per area to be treated, and, if necessary, it is repeated in 30 days. In general, it was observed that only 1 session followed by appropriate physiotherapy, a complementary session (like ultrasound, lymph-drainage, isotonic and isometric electro-stimulation), was usually sufficient in more than 80% of the patients. If it was necessary to repeat it, an evaluation is done after 30 days. Table 2 presents further information as to the stage of cellulite, concentration of mTHPC (Temoporfin), dose, surface area being treated; strength, power level and time of laser radiation application. [table] […]
structure (smiles),measurement,setting,value
Oc1cccc(-c2c3nc(c(-c4cccc(O)c4)c4ccc([nH]4)c(-c4cccc(O)c4)c4nc(c(-c5cccc(O)c5)c5ccc2[nH]5)CC4)C=C3)c1 [Temoporfin],solubility in triglycerides,[1],not soluble in triglycerides
same,effect in the dark,[2],totally innocuous and inactive in the dark
same,patients in whom only 1 session was usually sufficient,cellulites,more than 80 % of the patients
